The results in this text go back to US20240409585A1, “MACROCYCLIC IMMUNOMODULATORS” (priority 2021, published 2024).

SMILES strings stand for the structures. Like-named read-outs stand apart in the source and are kept apart here. Bridge positions count the residues as written; N and C are the ends. Square brackets hold non-standard residues; d marks the D form. Peptide text beside a SMILES is read from it. * marks the point of attachment. ξ: configuration not given here. Tyr(3-NO2) = N[C@@H](Cc1ccc(O)c([N+](=O)[O-])c1)C(=O)O; Phe(4-CONH2) = NC(=O)c1ccc(C[C@H](N)C(=O)O)cc1; Phe(4-COOH) = N[C@@H](Cc1ccc(C(=O)O)cc1)C(=O)O; Bip = N[C@@H](Cc1ccc(-c2ccccc2)cc1)C(=O)O; Phe(3-OMe) = COc1cccc(C[C@H](N)C(=O)O)c1; Phe(3-Me) = Cc1cccc(C[C@H](N)C(=O)O)c1; Val(3-OH) = CC(C)(O)[C@H](N)C(=O)O; 3Pal = N[C@@H](Cc1cccnc1)C(=O)O; 4Pal = N[C@@H](Cc1ccncc1)C(=O)O; Cha = N[C@@H](CC1CCCCC1)C(=O)O; Cit = NC(=O)NCCC[C@H](N)C(=O)O; Ile(3ξ) = CCC(C)[C@H](N)C(=O)O; AllylGly = C=CC[C@H](N)C(=O)O; Thr(3ξ) = CC(O)[C@H](N)C(=O)O; Pip = O=C(O)[C@@H]1CCCCN1; Carboxymethyl = O=C(O)C*; NMeA = CN[C@@H](C)C(=O)O; Orn = NCCC[C@H](N)C(=O)O; Dab = NCC[C@H](N)C(=O)O; Dap = NC[C@H](N)C(=O)O; Aib = CC(C)(N)C(=O)O; ξC = NC(CS)C(=O)O

In general, IC50 refers to the midpoint of a concentration-inhibition curve.

For this assay, the target named is T1, PE-labeled human PD-L1-Ig binding to Jurkat cell line over-expressing human PD-1 (Jurkat-PD-1) (Homo sapiens, UniProt Q15116).
T1 construct: expressed in transfected cells; host or cells: Jurkat
In words: Jurkat-PD-1 Cell Binding High-Content Screening Assay (CBA): Method 1. To be noted: Jurkat-hPD-1 cells, PE-labeled PD-L1-Ig 20 nM final.

[1] abbreviates: read-out: Jurkat HPDL1 PD1 IC50 (uM) (Method 1).

T1 sequence (Q15116 25-288): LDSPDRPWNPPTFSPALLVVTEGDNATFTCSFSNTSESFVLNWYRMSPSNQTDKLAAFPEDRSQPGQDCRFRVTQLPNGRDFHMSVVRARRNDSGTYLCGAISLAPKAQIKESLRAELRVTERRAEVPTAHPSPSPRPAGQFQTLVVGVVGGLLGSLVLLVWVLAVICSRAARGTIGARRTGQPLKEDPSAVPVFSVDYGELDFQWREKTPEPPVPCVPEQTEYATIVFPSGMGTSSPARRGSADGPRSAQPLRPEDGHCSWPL

Consider `CCC(C)[C@@H]1NC(=O)[C@H](Cc2ccc(-c3ccccc3)cc2)NC(=O)[C@H](C(C)C)NC(=O)[C@H](Cc2c[nH]c3ccccc23)NC(=O)[C@H](CC(=O)O)NC(=O)[C@H](Cc2ccc(OCC(=O)O)cc2)NC(=O)[C@H](Cc2cnc[nH]2)NC(=O)CSC[C@@H](C(=O)N[C@@H](CCN)C(N)=O)NC(=O)[C@H](CO)NC(=O)[C@H](C(C)(C)O)NC(=O)[C@H](CC2CCCCC2)NC(=O)[C@H](CCN)NC(=O)[C@@H](CC(C)C)NC(=O)[C@H](C)N(C)C1=O` (stereo partly drawn) [Compound 2204] ({CH2CO}-HY(Carboxymethyl)DWV[Bip][Ile(3ξ)][NMeA][dL][Dab][Cha][Val(3-OH)]SC[Dab]-NH2; thioether N-14), for which, under setting [1], the IC50 was 0.01 µM. `CC(C)C[C@@H]1NC(=O)[C@H](CCN)NC(=O)[C@@H](CC(C)C)NC(=O)[C@H](C)N(C)C(=O)[C@H](CCCNC(=N)N)NC(=O)[C@H](Cc2ccc(-c3ccccc3)cc2)NC(=O)[C@H](C(C)C)NC(=O)[C@H](Cc2c[nH]c3ccccc23)NC(=O)[C@H](CC(=O)O)NC(=O)[C@H](Cc2ccc(O)cc2)NC(=O)[C@H](Cc2ccccc2)NC(=O)CSC[C@@H](C(=O)N[C@@H](C)C(N)=O)NC(=O)[C@H](CO)NC(=O)[C@H](C(C)C)NC1=O` [Compound 1030] ({CH2CO}-FYDWV[Bip]R[NMeA][dL][Dab]LVSCA-NH2; thioether N-14) returned an IC50 (Jurkat HPDL1 PD1 IC50 (uM) (Method 1)) of 0.03 µM. `CC(C)C[C@@H]1NC(=O)[C@H](CCCN)NC(=O)[C@@H](CC(C)C)NC(=O)[C@H](C)N(C)C(=O)[C@H](CCCNC(=N)N)NC(=O)[C@H](Cc2ccc(-c3ccccc3)cc2)NC(=O)[C@H](C(C)C)NC(=O)[C@H](Cc2c[nH]c3ccccc23)NC(=O)[C@H](CC(=O)O)NC(=O)[C@H](Cc2ccc(O)cc2)NC(=O)[C@H](Cc2ccccc2)NC(=O)CSC[C@@H](C(=O)N[C@@H](C)C(N)=O)NC(=O)[C@H]([C@@H](C)O)NC(=O)[C@H](C(C)C)NC1=O` [Compound 1119] ({CH2CO}-FYDWV[Bip]R[NMeA][dL][Orn]LVTCA-NH2; thioether N-14): under setting [1], the half-maximal inhibitory concentration (IC50) was determined as 0.03 µM. As to `C=CC[C@@H]1NC(=O)[C@H](Cc2cccc(C)c2)NC(=O)[C@H](CC(=O)O)NC(=O)[C@H](Cc2ccncc2)NC(=O)[C@H](Cc2ccc(OCC(=O)O)cc2)NC(=O)CSCC(C(=O)NCC(N)=O)NC(=O)[C@H](CO)NC(=O)[C@H](C(C)C)NC(=O)[C@H](CC(C)C)NC(=O)[C@H](CC(N)=O)NC(=O)[C@@H](CC(C)C)NC(=O)[C@H](C)N(C)C(=O)[C@H](CC=C)NC(=O)[C@H](Cc2ccc(-c3ccccc3)cc2)NC1=O` (stereo partly drawn) [Compound 1883] ({CH2CO}-Y(Carboxymethyl)[4Pal]D[Phe(3-Me)][AllylGly][Bip][AllylGly][NMeA][dL]NLVS[ξC]G-NH2; thioether N-14), the IC50 under setting [1] was 0.06 µM. Regarding `CCC(C)[C@@H]1NC(=O)[C@H](Cc2ccc(-c3ccccc3)cc2)NC(=O)[C@H](C(C)C)NC(=O)[C@H](Cc2c[nH]c3ccccc23)NC(=O)[C@H](CC(=O)O)NC(=O)[C@H](Cc2ccc(O)cc2)NC(=O)[C@H](Cc2ccncc2)NC(=O)CSC[C@@H](C(=O)N[C@@H](CN)C(=O)O)NC(=O)[C@H](C(C)O)NC(=O)[C@H](C(C)C)NC(=O)[C@H](CC2CCCCC2)NC(=O)[C@H](CC(N)=O)NC(=O)[C@@H](CC(C)C)NC(=O)[C@H](C)N(C)C1=O` (stereo partly drawn) [Compound 2210] ({CH2CO}-[4Pal]YDWV[Bip][Ile(3ξ)][NMeA][dL]N[Cha]V[Thr(3ξ)]C[Dap]-OH; thioether N-14), the IC50 under setting [1] turned out to be 0.02 µM. The same measure, in the same setting: then `CC(C)C[C@@H]1NC(=O)[C@H](Cc2c[nH]c3ccccc23)NC(=O)[C@H](CC(=O)O)NC(=O)[C@H](Cc2ccc(C(=O)O)cc2)NC(=O)[C@H](Cc2cccnc2)NC(=O)CSC[C@@H](C(=O)N[C@@H](C)C(N)=O)NC(=O)[C@H](CO)NC(=O)[C@H](C(C)C)NC(=O)[C@H](CC(C)C)NC(=O)[C@H](CC(N)=O)NC(=O)[C@@H](C)NC(=O)[C@H](C)N(C)C(=O)[C@H](C(C)C)NC(=O)[C@H](Cc2ccc(-c3ccccc3)cc2)NC1=O` [Compound 1747] ({CH2CO}-[3Pal][Phe(4-COOH)]DWL[Bip]V[NMeA][dA]NLVSCA-NH2; thioether N-14), with 0.02 µM; and `Cc1cccc(C[C@@H]2NC(=O)[C@H](CC(=O)O)NC(=O)[C@H](Cc3ccc(O)cc3)NC(=O)[C@H](CN)NC(=O)CSC[C@@H](C(=O)N[C@@H](C)C(N)=O)NC(=O)[C@H]([C@@H](C)O)NC(=O)[C@H](C(C)C)NC(=O)[C@H](CC(C)C)NC(=O)[C@H](CCN)NC(=O)[C@@H](CC(C)C)NC(=O)[C@H](C)N(C)C(=O)[C@H](CCCNC(N)=O)NC(=O)[C@H](Cc3ccc(-c4ccccc4)cc3)NC(=O)[C@H](C(C)C)NC2=O)c1` [Compound 1422] ({CH2CO}-[Dap]YD[Phe(3-Me)]V[Bip][Cit][NMeA][dL][Dab]LVTCA-NH2; thioether N-14), with 0.05 µM. Still for that read-out and setting: then `CC(C)C[C@@H]1NC(=O)[C@H](CCN)NC(=O)[C@@H](CC(C)C)NC(=O)[C@H](C)N(C)C(=O)[C@H](CCCNC(N)=O)NC(=O)[C@H](Cc2ccc(-c3ccccc3)cc2)NC(=O)[C@H](C(C)C)NC(=O)[C@H](Cc2c[nH]c3ccccc23)NC(=O)[C@H](CC(=O)O)NC(=O)[C@H](Cc2ccc(C(=O)O)cc2)NC(=O)[C@H](Cc2ccc(OCC(=O)O)cc2)NC(=O)CSC[C@@H](C(=O)N[C@@H](C)C(N)=O)NC(=O)[C@H]([C@@H](C)O)NC(=O)[C@H](C(C)C)NC1=O` [Compound 1573] ({CH2CO}-Y(Carboxymethyl)[Phe(4-COOH)]DWV[Bip][Cit][NMeA][dL][Dab]LVTCA-NH2; thioether N-14), with 0.05 µM; and `CC(C)C[C@H]1NC(=O)[C@@H]2CCCCN2C(=O)[C@H](Cc2c[nH]cn2)NC(=O)[C@H](Cc2ccc(-c3ccccc3)cc2)NC(=O)[C@H](C(C)C)NC(=O)[C@H](Cc2c[nH]c3ccccc23)NC(=O)[C@H](CC(=O)O)NC(=O)[C@H](Cc2ccc(C(=O)O)cc2)NC(=O)[C@H](Cc2ccncc2)NC(=O)CSC[C@@H](C(=O)N[C@H](C)C(N)=O)NC(=O)[C@H](CO)NC(=O)[C@H](C(C)C)NC(=O)[C@H](CC2CCCCC2)NC(=O)[C@H](CCN)NC1=O` [Compound 2125] ({CH2CO}-[4Pal][Phe(4-COOH)]DWV[Bip]H[Pip][dL][Dab][Cha]VSC[dA]-NH2; thioether N-14), with 0.04 µM. The same measure, in the same setting: in the case of `CCC(C)[C@@H]1NC(=O)[C@H](Cc2ccc(-c3ccccc3)cc2)NC(=O)[C@H](C(C)C)NC(=O)[C@H](Cc2c[nH]c3ccccc23)NC(=O)[C@H](CC(=O)O)NC(=O)[C@H](Cc2cccc(OC)c2)NC(=O)[C@H](Cc2cccnc2)NC(=O)CSC[C@@H](C(=O)NCC(=O)N[C@@H](CN)C(=O)O)NC(=O)[C@H](C(C)O)NC(=O)[C@H](C(C)C)NC(=O)[C@H](CC2CCCCC2)NC(=O)[C@H](CC(N)=O)NC(=O)[C@@H](CC(C)C)NC(=O)[C@H](C)N(C)C1=O` (stereo partly drawn) [Compound 2006] ({CH2CO}-[3Pal][Phe(3-OMe)]DWV[Bip][Ile(3ξ)][NMeA][dL]N[Cha]V[Thr(3ξ)]CG[Dap]-OH; thioether N-14) it was 0.04 µM; in that of `CC(C)C[C@@H]1NC(=O)[C@H](Cc2c[nH]c3ccccc23)NC(=O)[C@H](CC(=O)O)NC(=O)[C@H](Cc2ccc(O)cc2)NC(=O)[C@H](Cc2ccccc2)NC(=O)CSC[C@@H](C(=O)NCC(N)=O)NC(=O)[C@H](CO)NC(=O)[C@H](C(C)C)NC(=O)[C@H](CC(C)C)NC(=O)[C@H](CC(N)=O)NC(=O)C(C)(C)NC(=O)[C@H](C)N(C)C(=O)[C@H](C(C)C)NC(=O)[C@H](Cc2ccc(-c3ccccc3)cc2)NC1=O` [Compound 1818] ({CH2CO}-FYDWL[Bip]V[NMeA][Aib]NLVSCG-NH2; thioether N-14), 0.42 µM. `CC(C)C[C@@H]1NC(=O)[C@H](CCCCN)NC(=O)[C@@H](CC(C)C)NC(=O)[C@H](C)N(C)C(=O)[C@H](Cc2cnc[nH]2)NC(=O)[C@H](Cc2ccc(-c3ccccc3)cc2)NC(=O)[C@H](C(C)C)NC(=O)[C@H](Cc2c[nH]c3ccccc23)NC(=O)[C@H](CC(=O)O)NC(=O)[C@H](Cc2ccc(O)cc2)NC(=O)[C@H](CC(N)=O)NC(=O)CSC[C@@H](C(=O)N[C@@H](C)C(N)=O)NC(=O)[C@H](CO)NC(=O)[C@H](C(C)C)NC1=O` [Compound 1482] ({CH2CO}-NYDWV[Bip]H[NMeA][dL]KLVSCA-NH2; thioether N-14): the concentration for half-maximal inhibition (IC50) under setting [1] was found to be 0.11 µM. Still for that read-out and setting: in the case of `Cc1cccc(C[C@@H]2NC(=O)[C@H](CC(=O)O)NC(=O)[C@H](Cc3ccc(C(N)=O)cc3)NC(=O)[C@H](Cc3ccncc3)NC(=O)CSC[C@@H](C(=O)N[C@@H](CCN)C(N)=O)NC(=O)[C@H](CO)NC(=O)[C@H](C(C)(C)O)NC(=O)[C@H](CC3CCCCC3)NC(=O)[C@H](CCN)NC(=O)[C@@H](CC(C)C)NC(=O)[C@H](C)N(C)C(=O)[C@H](Cc3ccc(OCC(=O)O)cc3)NC(=O)[C@H](Cc3ccc(-c4ccccc4)cc3)NC(=O)[C@H](Cc3ccc(OCC(=O)O)cc3)NC2=O)c1` [Compound 2138] ({CH2CO}-[4Pal][Phe(4-CONH2)]D[Phe(3-Me)]Y(Carboxymethyl)[Bip]Y(Carboxymethyl)[NMeA][dL][Dab][Cha][Val(3-OH)]SC[Dab]-NH2; thioether N-14) it was 0.03 µM; in that of `CC(C)C[C@@H]1NC(=O)[C@H](Cc2c[nH]c3ccccc23)NC(=O)[C@H](CC(=O)O)NC(=O)[C@H](Cc2ccc(O)cc2)NC(=O)[C@H](CC(N)=O)NC(=O)CSC[C@@H](C(=O)N[C@@H](C)C(N)=O)NC(=O)[C@H](CO)NC(=O)[C@H](C(C)C)NC(=O)[C@H](CC(C)C)NC(=O)[C@H](CCN)NC(=O)[C@@H](C)NC(=O)[C@H](C)N(C)C(=O)[C@H](CCCNC(=N)N)NC(=O)[C@H](Cc2ccc(-c3ccccc3)cc2)NC1=O` [Compound 1758] ({CH2CO}-NYDWL[Bip]R[NMeA][dA][Dab]LVSCA-NH2; thioether N-14), 0.03 µM. The same measure, in the same setting: then `CC(C)C[C@@H]1NC(=O)[C@H](CCCNC(=N)N)NC(=O)[C@@H](Cc2ccccc2)NC(=O)[C@H](C)N(C)C(=O)[C@H](CCCNC(=N)N)NC(=O)[C@H](Cc2ccc(-c3ccccc3)cc2)NC(=O)[C@H](C(C)C)NC(=O)[C@H](Cc2c[nH]c3ccccc23)NC(=O)[C@H](CC(=O)O)NC(=O)[C@H](Cc2ccc(O)c([N+](=O)[O-])c2)NC(=O)[C@H](CC(N)=O)NC(=O)CSC[C@@H](C(=O)N[C@@H](C)C(N)=O)NC(=O)[C@H]([C@@H](C)O)NC(=O)[C@H](C(C)C)NC1=O` [Compound 1167] ({CH2CO}-N[Tyr(3-NO2)]DWV[Bip]R[NMeA][dF]RLVTCA-NH2; thioether N-14), with 0.1 µM.
